The results in this text go back to patent US20100068160A1, “COSMETIC AND DERMATOLOGICAL FORMULATIONS INCLUDING PHENOXYALKYL ESTERS” (EVONIK GOLDSCHMIDT GMBH, priority 2008, published 2010).

The series can be described thus: Dissolving power of UV photoprotective filters in phenoxyalkyl esters. It is filed as physicochemical. The settings on record: percent by weight, 22° C.; for Dissolving power for Benzophenone-3: maximum dissolvable amount of UV filter Benzophenone-3 (BP-3) in the substance; for Dissolving power for BMDM: maximum dissolvable amount of UV filter Butyl Methoxydibenzoylmethane (BMDM) in the substance; for Dissolving power for Tinosorb S: maximum dissolvable amount of UV filter Tinosorb S (Bemotrizinol, BEMT) in the substance; for Dissolving power for Uvinul T 150: maximum dissolvable amount of UV filter Uvinul T 150 (Octyl Triazone, EHT) in the substance. The source says: To test the dissolving power of crystalline UV photoprotective filters in phenoxyalkyl esters, four representative UV-A and/or UV-B photoprotective filters were selected by way of representation. These were benzophenone-3 (2-hydroxy-4-methoxybenzophenone, BP-3), Butyl Methoxydibenzoylmethane (BMDM), Octyl Triazone (2,4,6-trianilino-p-(carbo-2′-ethylhexyl-1′-oxy)-1,3,5-triazines, EHT) and Bemotrizinol (bis-ethylhexyloxyphenol meth-oxyphenyl triazine, BEMT).
To determine the dissolving power for these […] UV photoprotective filters, in each case a certain amount (50 g) of one of the compounds according to the invention was initially introduced and heated to 22° C. One (1) percent by weight of a UV photoprotective filter was added and the mixture was stirred until this amount had dissolved completely and homogeneously. This operation was repeated until the maximum dissolvable amount of the UV photoprotective filter was exceeded. For complete dissolution in the case of relatively high concentrations, a prolonged stirring time of several hours was often necessary.
If the maximum concentration had been roughly determined in this way, to finely determine the concentration range around this maximum concentration the procedure was repeated using smaller initial weight amounts of the […] photoprotective filter.
The reference used was the compound Tegosoft® TN (C12-15 alkyl benzoate).

Regarding `CCCCCCCC(=O)OCCOc1ccccc1` [2-Phenoxyethyl caprylate, 2-phenoxyethyloctanoic acid ester], the “Dissolving power for Benzophenone-3” value came to 28%, the “Dissolving power for BMDM” value was found to be 18%, the “Dissolving power for Tinosorb S” value is reported as 11% and the “Dissolving power for Uvinul T 150” value worked out at 6%.

As to `CCCCCCCC(=O)OC(C)COc1ccccc1` (centres unmarked) [1-Phenoxy-2-propyl caprylate, 1-phenoxy-2-propyloctanoic acid ester], the “Dissolving power for Benzophenone-3” value is reported as 21%, the “Dissolving power for BMDM” value is 14%, the “Dissolving power for Tinosorb S” value is on record as 9% and the “Dissolving power for Uvinul T 150” value amounted to 6%.

With `O=C(OCCOc1ccccc1)C1CCCCC1` [2-Phenoxyethyl cyclohexanoate, 2-phenoxyethylcyclohexanecarboxylic acid ester], the “Dissolving power for Benzophenone-3” value is recorded as 30%, the “Dissolving power for BMDM” value is reported as 19%, the “Dissolving power for Tinosorb S” value is given as 12% and the “Dissolving power for Uvinul T 150” value is reported as 6%.

Consider `CCCCCCC(CCCC)C(=O)OCCOc1ccccc1` (centres unmarked) [2-Phenoxyethyl 2-butyloctanoate, 2-phenoxyethyl-2-butyloctanoic acid ester], for which the “Dissolving power for Benzophenone-3” value worked out at 19%, the “Dissolving power for BMDM” value is given as 14%, the “Dissolving power for Tinosorb S” value stood at 8% and the “Dissolving power for Uvinul T 150” value turned out to be 5%.

Take `CCCCCC(=O)OCCOc1ccccc1` [2-Phenoxyethyl caproate]: the “Dissolving power for Benzophenone-3” value was 28%, the “Dissolving power for BMDM” value worked out at 18%, the “Dissolving power for Tinosorb S” value was found to be 11% and the “Dissolving power for Uvinul T 150” value came out at 6%.

On to `CCCCC(CC)C(=O)OCCOc1ccccc1` (centres unmarked) [2-Phenoxyethyl 2-ethylhexanoate, 2-phenoxyethyl-2-ethylhexanoic acid ester], for which the “Dissolving power for Benzophenone-3” value was 25%, the “Dissolving power for BMDM” value came out at 17%, the “Dissolving power for Tinosorb S” value was determined as 12% and the “Dissolving power for Uvinul T 150” value amounted to 4%.

Regarding `CC(C)CCCCCC(=O)OCCOc1ccccc1` [2-Phenoxyethyl isononanoate], the “Dissolving power for Benzophenone-3” value was 25%, the “Dissolving power for BMDM” value worked out at 16%, the “Dissolving power for Tinosorb S” value is 9% and the “Dissolving power for Uvinul T 150” value came to 4%.

With `CCCCC(CC)C(=O)OC(C)COc1ccccc1` (centres unmarked) [1-Phenoxy-2-propyl 2-ethylhexanoate], the “Dissolving power for Benzophenone-3” value worked out at 21%, the “Dissolving power for BMDM” value was determined as 15%, the “Dissolving power for Tinosorb S” value was determined as 9% and the “Dissolving power for Uvinul T 150” value turned out to be 4%.

Consider `CC(COc1ccccc1)OC(=O)C1CCCCC1` (centres unmarked) [1-Phenoxy-2-propyl cyclohexanoate, 1-phenoxy-2-propylcyclohexanecarboxylic acid ester], for which the “Dissolving power for Benzophenone-3” value is on record as 27%, the “Dissolving power for BMDM” value stood at 16%, the “Dissolving power for Tinosorb S” value turned out to be 10% and the “Dissolving power for Uvinul T 150” value turned out to be 6%.

Turning to `CCCCCC(CCC)C(=O)OCCOc1ccccc1` (centres unmarked) [2-Phenoxyethyl 2-propylheptanoate], the “Dissolving power for Benzophenone-3” value was 20%, the “Dissolving power for BMDM” value turned out to be 13%, the “Dissolving power for Tinosorb S” value was 9% and the “Dissolving power for Uvinul T 150” value stood at 4%.

Consider “C12-15 alkyl benzoate [Tegosoft ® TN, reference compound]”, for which the “Dissolving power for Benzophenone-3” value is given as 15%, the “Dissolving power for BMDM” value worked out at 13%, the “Dissolving power for Tinosorb S” value is recorded as 9% and the “Dissolving power for Uvinul T 150” value is recorded as 4%.
